The values that follow are results of earlier work, collected in US20230181603A1, “METHODS OF TREATING CANCER WITH METABOLITE ADJUSTMENTS” (priority 2021, published 2023).

Structures are written as SMILES.

For one data set, the system named is glial precursor cell. Particulars: slice cultures.

`CCCCCCCCCCCCCCCC(=O)OC[C@H](O)[C@H]1OC(=O)C(O)=C1O` [Ascorbyl palmitate]: the “hyaluronidase inhibitor effective concentration” value in the data set on hyaluronidase was “low-micromolar range”. Moreover, the “inhibition of glial precursor cell migration” value in the data set on glial precursor cell is given as “potently inhibits”.
